# Measured values as given in US20260124184A1, “ONCE DAILY ALDOSTERONE SYNTHASE INHIBITOR (R)-(+)-5-(P-CYANOPHENYL)-5,6,7,8-TETRAHYDROIMIDAZO[L,5-A]PYRIDINE” (priority 2022, published 2026).
# Read-outs that look alike come from different tables or passages of the source.
# System: patients with primary aldosteronism
# Method: A double-blind, randomized, Phase 2 trial was conducted between November 2019 and June 2022 at 11 centres in Italy, Switzerland and the Netherlands (NCT04007406). […] Patients requiring fixed-dose antihypertensive therapy continued treatment throughout the study; steroid therapies, β-adrenergic and renin-angiotensin-aldosterone system blockers were not permitted. At 14-day intervals, office blood pressures were recorded and blood samples were taken for measurement of steroid and peptide hormones and electrolytes at a central laboratory.
# [1] = 4 mg once daily, n=10, Day 1 (baseline)
# [2] = 4 mg once daily, n=10, Day 70 (after placebo withdrawal)
# [3] = 8 mg once daily, n=11, Day 1 (baseline)
# [4] = 8 mg once daily, n=11, Day 70 (after placebo withdrawal)
substance,measurement,setting,value
"(R)-(+)-5-(p-cyanophenyl)-5,6,7,8-tetrahydroimidazolium[1,5-a]pyridine dihydrogen phosphate [dexfadrostat phosphate]","plasma potassium, mean",[1],3.36 nmol/L
same,"plasma potassium, median",[1],3.35 nmol/L
same,"plasma potassium, mean","4 mg once daily, n=10, Day 14",4.27 nmol/L
same,"plasma potassium, median","4 mg once daily, n=10, Day 14",4.35 nmol/L
same,"plasma potassium, mean","4 mg once daily, n=10, Day 28",3.85 nmol/L
same,"plasma potassium, median","4 mg once daily, n=10, Day 28",3.85 nmol/L
same,"plasma potassium, mean","4 mg once daily, n=10, Day 42",4.07 nmol/L
same,"plasma potassium, median","4 mg once daily, n=10, Day 42",4.15 nmol/L
same,"plasma potassium, mean","4 mg once daily, n=10, Day 56",4.10 nmol/L
same,"plasma potassium, median","4 mg once daily, n=10, Day 56",4.20 nmol/L
same,"plasma potassium, mean",[2],3.58 nmol/L
same,"plasma potassium, median",[2],3.60 nmol/L
same,"plasma potassium, mean",[3],3.55 nmol/L
same,"plasma potassium, median",[3],3.50 nmol/L
same,"plasma potassium, mean","8 mg once daily, n=11, Day 14",4.32 nmol/L
same,"plasma potassium, median","8 mg once daily, n=11, Day 14",4.30 nmol/L
same,"plasma potassium, mean","8 mg once daily, n=11, Day 28",4.04 nmol/L
same,"plasma potassium, median","8 mg once daily, n=11, Day 28",4.00 nmol/L
same,"plasma potassium, mean","8 mg once daily, n=11, Day 42",3.99 nmol/L
same,"plasma potassium, median","8 mg once daily, n=11, Day 42",3.90 nmol/L
same,"plasma potassium, mean","8 mg once daily, n=11, Day 56",4.10 nmol/L
same,"plasma potassium, median","8 mg once daily, n=11, Day 56",4.10 nmol/L
same,"plasma potassium, mean",[4],3.76 nmol/L
same,"plasma potassium, median",[4],3.80 nmol/L
same,plasma potassium upon drug withdrawal,"Day 70, after 14-day placebo withdrawal",potassium values returned towards baseline levels
same,"plasma potassium concentration, mean","baseline potassium <3.6 mmol/L, 4 mg QD, Day 1 (baseline)",3.1 mmol/L
same,"plasma potassium concentration, mean","baseline potassium <3.6 mmol/L, 4 mg QD, Day 14",4.1 mmol/L
same,"plasma potassium concentration, mean","baseline potassium <3.6 mmol/L, 4 mg QD, Day 28",3.8 mmol/L
same,"plasma potassium concentration, mean","baseline potassium <3.6 mmol/L, 4 mg QD, Day 42",3.9 mmol/L
same,"plasma potassium concentration, mean","baseline potassium <3.6 mmol/L, 4 mg QD, Day 56",4.0 mmol/L
same,"plasma potassium concentration, mean","baseline potassium <3.6 mmol/L, 4 mg QD, Day 70 (placebo withdrawal)",3.3 mmol/L
same,"plasma potassium concentration, mean","baseline potassium <3.6 mmol/L, 8 mg QD, Day 1 (baseline)",3.3 mmol/L
same,"plasma potassium concentration, mean","baseline potassium <3.6 mmol/L, 8 mg QD, Day 14",4.2 mmol/L
same,"plasma potassium concentration, mean","baseline potassium <3.6 mmol/L, 8 mg QD, Day 28",3.9 mmol/L
same,"plasma potassium concentration, mean","baseline potassium <3.6 mmol/L, 8 mg QD, Day 42",4.0 mmol/L
same,"plasma potassium concentration, mean","baseline potassium <3.6 mmol/L, 8 mg QD, Day 56",4.0 mmol/L
same,"plasma potassium concentration, mean","baseline potassium <3.6 mmol/L, 8 mg QD, Day 70 (placebo withdrawal)",3.7 mmol/L
same,"plasma potassium concentration, mean","baseline potassium <3.6 mmol/L, 12 mg QD, Day 1 (baseline)",3.3 mmol/L
same,"plasma potassium concentration, mean","baseline potassium <3.6 mmol/L, 12 mg QD, Day 14",3.9 mmol/L
same,"plasma potassium concentration, mean","baseline potassium <3.6 mmol/L, 12 mg QD, Day 28",4.0 mmol/L
same,"plasma potassium concentration, mean","baseline potassium <3.6 mmol/L, 12 mg QD, Day 42",4.1 mmol/L
same,"plasma potassium concentration, mean","baseline potassium <3.6 mmol/L, 12 mg QD, Day 56",3.8 mmol/L
same,"plasma potassium concentration, mean","baseline potassium <3.6 mmol/L, 12 mg QD, Day 70 (placebo withdrawal)",3.7 mmol/L
same,"plasma potassium concentration, mean","baseline potassium ≤3.0 mmol/L, all doses QD, Day 1 (baseline)",2.9 mmol/L
same,"plasma potassium concentration, mean","baseline potassium ≤3.0 mmol/L, all doses QD, Day 14",3.9 mmol/L
same,"plasma potassium concentration, mean","baseline potassium ≤3.0 mmol/L, all doses QD, Day 28",3.9 mmol/L
same,"plasma potassium concentration, mean","baseline potassium ≤3.0 mmol/L, all doses QD, Day 42",4.0 mmol/L
same,"plasma potassium concentration, mean","baseline potassium ≤3.0 mmol/L, all doses QD, Day 56",3.9 mmol/L
same,"plasma potassium concentration, mean","baseline potassium ≤3.0 mmol/L, all doses QD, Day 70 (placebo withdrawal)",3.5 mmol/L
same,"plasma potassium concentration, mean","baseline potassium ≥3.6 mmol/L, 4 mg QD, Day 1 (baseline)",3.8 mmol/L
same,"plasma potassium concentration, mean","baseline potassium ≥3.6 mmol/L, 4 mg QD, Day 14",4.6 mmol/L
same,"plasma potassium concentration, mean","baseline potassium ≥3.6 mmol/L, 4 mg QD, Day 28",4.0 mmol/L
same,"plasma potassium concentration, mean","baseline potassium ≥3.6 mmol/L, 4 mg QD, Day 42",4.3 mmol/L
same,"plasma potassium concentration, mean","baseline potassium ≥3.6 mmol/L, 4 mg QD, Day 56",4.3 mmol/L
same,"plasma potassium concentration, mean","baseline potassium ≥3.6 mmol/L, 4 mg QD, Day 70 (placebo withdrawal)",4.0 mmol/L
same,"plasma potassium concentration, mean","baseline potassium ≥3.6 mmol/L, 8 mg QD, Day 1 (baseline)",3.8 mmol/L
same,"plasma potassium concentration, mean","baseline potassium ≥3.6 mmol/L, 8 mg QD, Day 14",4.3 mmol/L
same,"plasma potassium concentration, mean","baseline potassium ≥3.6 mmol/L, 8 mg QD, Day 28",4.1 mmol/L
